In patent US12171779B2, “Regulated drug delivery via controlled degradable chondroitin sulfate particles” (UNIVERSITY OF SOUTH FLORIDA, priority 2021, dated 2024):

Key:
[1] = cited from earlier work
[2] = Total phenolic content by Folin-Ciocalteau (FC) method; conditions: 1000 μg/mL concentration
Method: Total phenolic content of the particles was evaluated by Folin-Ciocalteau (FC) method. Briefly, 0.1 mL of 1 mg/mL microgel suspensions were reacted with 1.25 mL of 0.2 N solution of FC phenol reagent for 4 min. Next, 1 mL of 0.7 M sodium bicarbonate solution was added to this mixture and kept in the dark for 2 hours. Then, the total phenol content of the microgels was measured by using a UV/Vis spectrophotometer (T80+PG Instrument) at 760 nm. The antioxidant activity of the microgels was expressed as μg/mL gallic acid equivalent. The analysis was repeated three times, and the values are reported as the average values with standard deviations.

O=C(/C=C/c1ccc(O)c(O)c1)O[C@H](Cc1ccc(O)c(O)c1)C(=O)O [RA, Rosmarinic acid]
IC50 (50% inhibition of DPPH radical) [1]: 1.3 ± 0.1 µg/mL
Total phenol content (TPC), gallic acid equivalent [2]: 556±35 μg/mL gallic acid equivalent
